Reference: article PMC5556071, “ATR inhibition facilitates targeting of leukemia dependence on convergent nucleotide biosynthetic pathways” (Nature Communications, 2017)

System: CEM T-ALL cells
Assay: Cell cycle kinetics by EdU incorporation (flow cytometry) after release from Palbociclib G1 arrest
Format: cell-based, human
Details: for S1 / S2 / S3: synchronous CEM, 12 h after G1 release
Procedure: CEM T-ALL cells were synchronized in G1 phase, and then treated as indicated. Cells were pulsed with EdU 1 h before collection at different time points. Cells were fixed 4% paraformaldehyde, permeabilized with perm/wash reagent (Invitrogen), stained with Azide-AF647 (using click-chemistry, Invitrogen; Click-iT EdU Flow cytometry kit, #C10634) and FxCycle-Violet (Invitrogen), and then analyzed flow cytometry (a detailed description is available in the Supplementary Information).
Cell cycle synchronization. Cells were treated with a CDK4/6 inhibitor, Pablociclib or PD-0332991 (Selleckchem, S1116) for 18 h to synchronize them in the G1 phase. Subsequently, cells were washed twice with PBS containing 2% FBS (Omega Scientific) and released into fresh media. […]
0.5 ml of propidium iodide (Calbiochem, #P3566, 1 µg/mL) solution containing Ribonuclease A and 0.3% Triton-X 100. The samples were protected from light before acquisition by flow cytometry.
Cell cycle kinetics and cell cycle progression by intracellular detection of DNA-incorporated 5-ethynyl-2-deoxyuridine (EdU). CEM T-ALL cells were plated at a density of 0.5 x 10^6 cells/mL. Cells were pulsed with 10 µM EdU (Invitrogen) for 1 h, washed twice with PBS, and released in fresh media containing 5 µM deoxyribonucleosides, with and without drugs. Cells were collected at different time points following release in fresh media, and then fixed with 4% paraformaldehyde and permeabilized using saponin perm/wash reagent (Invitrogen). Cells were then stained with azide-Alexa Fluor 647 by Click reaction according to manufacturer’s protocol (Invitrogen; Click-iT EdU Flow cytometry kit, #C10634). The total DNA content was assessed by staining the samples with FxCycle-Violet (Invitrogen, #F10347) at 1 µg/mL final concentration in PBS containing 2% FBS. To measure the cell cycle progression of a synchronous population of cells, cells were first arrested in the G1 phase following treatment with 1 µM Palbociclib for 18 h, then washed and released in fresh media supplemented with drugs. Before collecting and fixing the cells at different time points, the cells were pulse-labeled with 10 µM EdU for 1 h, and then labeled with azide-Alexa Fluor 647 (Invitrogen; Click-iT EdU Flow cytometry kit). Total DNA content was assessed by staining with FxCycle-Violet (Invitrogen) at 1 µg/mL final concentration in PBS containing 2% FBS. pH2A.X staining. Cells were harvested, fixed and permeabilized with cytofix/cytoperm (BD biosciences, #554722) for 15 min on ice protected from light. Cells were washed, then resuspended in 100 µL 1X Perm/wash buffer (BD Sciences) and incubated for 15 min on ice. The cells were washed, then resuspended in 50 µL with phospho-Histone H2A.X (Ser139) antibody conjugated to fluorochrome FITC (EMD Millipore, #05-636, 1:800 dilutions in perm/wash) for 20 min in the dark at RT. Subsequently, cells were washed and stained with 0.5 mL of DAPI (Invitrogen, #D1306) for DNA content (1 µg/mL in 2% FBS in PBS) before data […]
Measurement of ssDNA levels using the F7-26 monoclonal antibody. Cells were harvested and fixed with ice-cold methanol:PBS (6:1 v/v) for 24h. Staining with F7-26 monoclonal mouse antibody was performed according to manufacturer’s instructions (EMD Millipore, #MAB3299). Fixed cells were resuspended in 250 µL of formamide and heated in a water bath at 75 °C for 10 min. Cells were then allowed to equilibrate to room temperature and then washed with 2 mL of 1% non-fat dry milk in PBS for 15 min. Subsequently, cells were resuspended in 100 µL of anti-ssDNA Mab F7-26 (EMD Millipore, 1:10 in 5% FBS in PBS) and incubated for 45 min at room temperature. Cells were washed with PBS and stained with 100 µL of fluorescence-conjugated

Compound | fewer cells entered S2 compared to untreated cells (12 h after release from G1 arrest) [%] | S1 (+ dNTP (10 µM)) [%] | S2 (+ dNTP (10 µM)) [%] | S3 (+ dNTP (10 µM)) [%] | S1 (– dNTP) [%] | S2 (– dNTP) [%] | S3 (– dNTP) [%] | percentage of cell population in S2* (late S-phase) (12 h following release from G1 arrest, DI-82 1 µM) [%]
CNCc1ccc(-c2cc(-c3nc(-c4ccc(S(=O)(=O)C(C)C)cc4)cnc3N)on2)cc1 [VE-822] | 16 | 43 | 52 | 1.5 | 58 | 37 | 1 | –
COc1ccc(-c2nc([C@@H](C)Sc3nc(N)cc(N)n3)c(C)s2)cc1OCCNS(C)(=O)=O [dCKi] | – | 42 | 42 | 14 | 66 | 22 | 8.4 | 6.1
